Assay results as given in ChEMBL document CHEMBL1201862, “PubChem BioAssay data set” (2004).
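Step 1: Grow cells in 96-well plates. Step 2: Expose to compound for 48 hours at 5 concentrations. Step 3: Interpolate endpoints linearly; if unreached, use highest concentration. The concentration for 50% growth inhibition is given as GI50.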 Calls of active or inactive are those of the source. Cut-off read from the data, not from the text of the source: active = GI50 up to about 1.1 µM and inactive = higher.

Experiments:
Assay in all cases: DTP human tumour cell line panel, 48 h
[1] = tested on: NCI/ADR-RES
[2] = tested on: CCRF-CEM
[3] = tested on: MCF7
[4] = tested on: RPMI-8226
[5] = tested on: DU-145
[6] = tested on: SW-620
[7] = tested on: UACC-257
[8] = tested on: SF-539
[9] = tested on: NCI-H23
[10] = tested on: COLO 205
[11] = tested on: EKVX
[12] = tested on: SK-MEL-28
[13] = tested on: MDA-MB-435
[14] = tested on: OVCAR-4
[15] = tested on: SNB-75
[16] = tested on: A498
[17] = tested on: OVCAR-5
[18] = tested on: TK-10
[19] = tested on: OVCAR-8

Compound | GI50 [1] | GI50 [2] | GI50 [3] | GI50 [4] | GI50 [5] | GI50 [6] | GI50 [7] | GI50 [8] | GI50 [9] | GI50 [10] | GI50 [11] | GI50 [12] | GI50 [13] | GI50 [14] | GI50 [15] | GI50 [16] | GI50 [17] | GI50 [18] | GI50 [19]
Cc1ccccc1C1CC(=O)CC(c2ccccc2C)C12C(=O)NC(=S)NC2=O (stereo unspecified) | 30.3 µM (inactive) | 25 µM (inactive) | 32 µM (inactive) | 12.6 µM (inactive) | 41.7 µM (inactive) | 28.5 µM (inactive) | 22 µM (inactive) | 20.9 µM (inactive) | 35.2 µM (inactive) | 19.5 µM (inactive) | 47.2 µM (inactive) | 20.2 µM (inactive) | 20 µM (inactive) | 37.5 µM (inactive) | 20.8 µM (inactive) | 22.9 µM (inactive) | 50.1 µM (inactive) | 39.4 µM (inactive) | –
Cc1ccc(S(=O)(=O)NC(=O)C2C(=O)CC3(CCCCC3)CC2=O)cc1 | 19.7 µM (inactive) | 27.3 µM (inactive) | 22.8 µM (inactive) | 23.1 µM (inactive) | 37.5 µM (inactive) | 27.6 µM (inactive) | 28.6 µM (inactive) | 30.7 µM (inactive) | 46 µM (inactive) | 17.9 µM (inactive) | 25.4 µM (inactive) | – | 32.1 µM (inactive) | 32.4 µM (inactive) | 51.4 µM (inactive) | 28.4 µM (inactive) | 24.4 µM (inactive) | 23.5 µM (inactive) | 27.7 µM (inactive)
CC1(C)C2CC(O)C1CCC2=O (stereo unspecified) | > 100 µM (inactive) | > 100 µM (inactive) | > 100 µM (inactive) | > 100 µM (inactive) | > 100 µM (inactive) | – | > 100 µM (inactive) | > 100 µM (inactive) | > 100 µM (inactive) | > 100 µM (inactive) | – | > 100 µM (inactive) | > 100 µM (inactive) | > 100 µM (inactive) | > 100 µM (inactive) | > 100 µM (inactive) | > 100 µM (inactive) | > 100 µM (inactive) | > 100 µM (inactive)
C=C1C(=O)OC2(C)CCC1CC1OC1(C)CCC=C(C)CCC2O (stereo unspecified) | > 100 µM (inactive) | 7.08 µM (inactive) | > 100 µM (inactive) | 53 µM (inactive) | 55 µM (inactive) | 45.4 µM (inactive) | > 100 µM (inactive) | 88.3 µM (inactive) | > 100 µM (inactive) | > 100 µM (inactive) | > 100 µM (inactive) | > 100 µM (inactive) | 44.3 µM (inactive) | > 100 µM (inactive) | > 100 µM (inactive) | 35.9 µM (inactive) | > 100 µM (inactive) | > 100 µM (inactive) | > 100 µM (inactive)
O=C1c2cc([N+](=O)[O-])ccc2-c2cccc(F)c21 | > 100 µM (inactive) | 23.7 µM (inactive) | 31.3 µM (inactive) | 64.1 µM (inactive) | > 100 µM (inactive) | 48.3 µM (inactive) | 65.3 µM (inactive) | 40.2 µM (inactive) | > 100 µM (inactive) | > 100 µM (inactive) | 18.9 µM (inactive) | > 100 µM (inactive) | 76.7 µM (inactive) | > 100 µM (inactive) | > 100 µM (inactive) | 65.6 µM (inactive) | > 100 µM (inactive) | > 100 µM (inactive) | 43.1 µM (inactive)
CC1=CC(=O)/C(=C/NC(=S)Nc2ccccc2)C(=O)O1 | > 100 µM (inactive) | > 100 µM (inactive) | > 100 µM (inactive) | > 100 µM (inactive) | > 100 µM (inactive) | > 100 µM (inactive) | > 100 µM (inactive) | > 100 µM (inactive) | > 100 µM (inactive) | > 100 µM (inactive) | > 100 µM (inactive) | – | > 100 µM (inactive) | > 100 µM (inactive) | > 100 µM (inactive) | > 100 µM (inactive) | > 100 µM (inactive) | > 100 µM (inactive) | > 100 µM (inactive)
COc1cc2ncnc(NS(=O)(=O)c3cc4ccccc4s3)c2cc1OC | > 100 µM (inactive) | > 100 µM (inactive) | > 100 µM (inactive) | 58.3 µM (inactive) | > 100 µM (inactive) | > 100 µM (inactive) | > 100 µM (inactive) | > 100 µM (inactive) | 93.1 µM (inactive) | > 100 µM (inactive) | 75 µM (inactive) | – | > 100 µM (inactive) | 92.7 µM (inactive) | 47.8 µM (inactive) | 56.4 µM (inactive) | > 100 µM (inactive) | > 100 µM (inactive) | > 100 µM (inactive)
N=c1oc2c(Cl)cc(Cl)cc2cc1C(=O)Nc1ccccn1 | 66.4 µM (inactive) | 22 µM (inactive) | 29.2 µM (inactive) | 22.3 µM (inactive) | 72.4 µM (inactive) | 43.6 µM (inactive) | > 100 µM (inactive) | 40.9 µM (inactive) | 41.4 µM (inactive) | > 100 µM (inactive) | 67.3 µM (inactive) | > 100 µM (inactive) | 45.6 µM (inactive) | 58.6 µM (inactive) | 14.3 µM (inactive) | 40.1 µM (inactive) | > 100 µM (inactive) | 34.5 µM (inactive) | –
Cc1ccc(S(=O)(=O)N/N=C2\CC(C)OC3=C2CCCCCC3)cc1 (stereo unspecified) | 20.5 µM (inactive) | 24.7 µM (inactive) | 19 µM (inactive) | 21.9 µM (inactive) | 19.4 µM (inactive) | 20.5 µM (inactive) | 18.7 µM (inactive) | 20.5 µM (inactive) | 20.5 µM (inactive) | 20.9 µM (inactive) | 15.2 µM (inactive) | 22.1 µM (inactive) | 18.5 µM (inactive) | 19.8 µM (inactive) | 24.2 µM (inactive) | 15.5 µM (inactive) | 19.5 µM (inactive) | 20.5 µM (inactive) | 21.2 µM (inactive)
COc1cc(CCNC2=CC(=O)c3cccnc3C2=O)ccc1O | 2.55 µM (inactive) | 3.64 µM (inactive) | 0.16 µM (active) | 1.92 µM (inactive) | 1.72 µM (inactive) | 1.4 µM (inactive) | 0.869 µM (active) | 1.59 µM (inactive) | 0.809 µM (active) | 1.6 µM (inactive) | 3.08 µM (inactive) | 1.22 µM (inactive) | 0.173 µM (active) | 1.92 µM (inactive) | 0.83 µM (active) | 2.6 µM (inactive) | 1.63 µM (inactive) | 7.96 µM (inactive) | 2.26 µM (inactive)
COc1cc2c(cc1OC)C13CC[N+]4(C)CC5=CCOC6CC(=O)N2C1C6C5CC34[O-] (stereo unspecified) | > 100 µM (inactive) | > 100 µM (inactive) | > 100 µM (inactive) | > 100 µM (inactive) | > 100 µM (inactive) | > 100 µM (inactive) | > 100 µM (inactive) | > 100 µM (inactive) | > 100 µM (inactive) | > 100 µM (inactive) | > 100 µM (inactive) | > 100 µM (inactive) | > 100 µM (inactive) | > 100 µM (inactive) | > 100 µM (inactive) | > 100 µM (inactive) | – | > 100 µM (inactive) | > 100 µM (inactive)
